Source: US20050130982A1, “Oral therapeutic or preventative drugs for pollakiuria and urinary incontinence and oral sleep inducers, containing tropolone derivatives” (Nippon Kayaku Kabushiki Kaisha, priority 2002, published 2005)
Marks after values point to notes of the source that are not given here.

Legend:
[1] = Measurement of bioavailability by oral administration in rats; assay type: in vivo, rat; conditions: for Bioavailability (%): 6.25 mg/kg oral vs intravenous, ratio of AUC
Procedure: The intravenous administration group and the oral administration group consisted of 3 rats each (6 week-old male SD-IGS strain (Japan Charles River Co.)).
Each test drug was dissolved in physiological saline or ultra-pure water and administered to the rats intravenously or orally at 6.25 mg/kg. The blood samples were collected periodically and the plasma were prepared by the routine procedures. After deproteinization, the concentration of each test drug was measured by the LC/ESI(+) SRM method (liquid chromatography/electrospray-ionization (+) selected reaction monitoring method) and the bioavailability was calculated as the ratio (percent) of AUC (area under the blood concentration-time curve) of the oral administration and AUC of the intra-venous administration.

[2] = system: rhythmic bladder contraction; assay: Effect on the rhythmic bladder contraction of rats (inhibition of micturition reflex); assay type: in vivo, rat; conditions: for Inhibition rate of the rhythmic contraction frequency of the bladder (%): anesthetized SD-IGS male rats, 120 minutes following administration; for Inhibitory activity on the frequency of the rhythmic bladder contraction (in words): rats
Procedure: The inhibitory effect on the micturition reflex was evaluated by the effect on the rhythmic bladder contraction according to the method of […] et al. (Rinshyoseiri 5, 540-547 (1975)). SD-IGS strain male rats were anesthetized by intraperitonial administration of urethane (1 g/kg). After exposing the bladder of the animal through an incision of the abdomen, a small incision was made on the top of the bladder from where a rubber balloon was inserted. The balloon was attached to a polyethylene tube connecting to a three way stopcock. The rest two ways of the stopcock were connected to a syringe for infusing water to the balloon and a transducer to measure the internal pressure of the bladder. The test animal was left for a while and then water was infused into the balloon until rhythmic contraction started. The change in the internal pressure of the bladder was recorded continuously by a polygraph. Drugs were dissolved in de-ionized water and administered through a catheter inserted in the duodenum. The effect of the drug was expressed as the inhibition ratio of the frequency of the rhythmic contraction of the bladder obtained by following formula. Inhibition rate (%)=100-{the frequency of the rhythmic contraction during 120 minutes following the administration (converted to the frequency per unit time)/the frequency of the rhythmic contraction 20 minutes immediately before the administration (converted to the frequency per unit time)×100}

[3] = molecular target: T1, human serotonin 1A receptor (Homo sapiens, UniProt P08908); assay: Serotonin 1A antagonism activity: affinity to the human serotonin 1A receptor in transfected CHO cells; assay type: binding; conditions: 10^−6 M test drug, 0.3 nM 8-OH-DPAT, CHO cells transfected with the human serotonin 1A receptor gene
T1 construct: expressed in transfected cells; host or cells: CHO cells
T1 sequence (P08908 1-422): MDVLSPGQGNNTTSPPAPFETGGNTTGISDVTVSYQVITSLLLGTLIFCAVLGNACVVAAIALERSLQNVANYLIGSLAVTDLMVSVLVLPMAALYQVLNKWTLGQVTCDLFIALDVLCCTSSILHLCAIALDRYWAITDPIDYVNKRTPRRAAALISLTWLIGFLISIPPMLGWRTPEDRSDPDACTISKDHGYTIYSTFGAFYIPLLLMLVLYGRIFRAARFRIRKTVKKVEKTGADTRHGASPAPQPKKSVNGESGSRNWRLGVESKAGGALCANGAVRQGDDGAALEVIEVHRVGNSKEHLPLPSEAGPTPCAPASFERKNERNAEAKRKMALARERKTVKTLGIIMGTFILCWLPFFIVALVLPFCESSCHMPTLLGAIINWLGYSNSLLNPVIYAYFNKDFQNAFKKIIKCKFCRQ
Procedure: The affinity of the test drug 1 to the human serotonin 1 A receptor was measured according to the method by Mulheron et al. (J. G. Mulheron et al., J. Biol. Chem., 269, 12954-12962 (1994)) by using the CHO cells transfected with the human serotonin 1A receptor gene.

[4] = system: sleep-inducing symptoms (drowsiness); assay: Observation of sleep-inducing symptoms in dogs after oral administration; assay type: in vivo, dog; conditions: male Beagle dogs
Procedure: Male dogs (Beagles) were orally administered with capsules filled with the test drug 1 and the symptoms were observed. The dosages were 3 mg/kg, 10 mg/kg, 30 mg/kg and 100 mg/kg.

[5] = Hygroscopic evaluation at 75% relative humidity; assay type: physicochemical; conditions: for Weight change (mg) in 75% relative humidity: 50 mg sample; for Increase in weight (hygroscopicity, in words): 75% relative humidity for 26 days
Description: Fifty mg of the each test sample was weighed exactly and placed in a closed container in which the relative humidity was kept at 75% and the bottom chamber was filled with saturated brine.

[6] = oral capsule, group of more than 10 mg/kg
[7] = intra-duodenal administration of 6.25 mg/kg

| Bioavailability (%) ([1]; hydrochloride, 6.25 mg/kg) | Weight change (mg) in 75% relative humidity ([5]; storage time 0 hours) | Weight change (mg) in 75% relative humidity ([5]; storage time 2 hours) | Weight change (mg) in 75% relative humidity ([5]; storage time 4 hours) | Weight change (mg) in 75% relative humidity ([5]; storage time 6 hours) | Weight change (mg) in 75% relative humidity ([5]; storage time 103 hours) | Weight change (mg) in 75% relative humidity ([5]; storage time 170 hours) | Weight change (mg) in 75% relative humidity ([5]; storage time 26 days) | Increase in weight (hygroscopicity, in words) [5] | SMILES | Inhibition rate of the rhythmic contraction frequency of the bladder (%) ([2]; 12.5 mg/kg intra-duodenal) | Inhibition rate of the rhythmic contraction frequency of the bladder (%) ([2]; 6.25 mg/kg intra-duodenal) | Inhibitory activity on the frequency of the rhythmic bladder contraction (in words) [2, 7] | also measured |
| --- | --- | --- | --- | --- | --- | --- | --- | --- | --- | --- | --- | --- | --- |
| – | – | – | – | – | – | – | – | – | CC(C)c1ccc(CN2CCN(c3ccccc3)CC2)c(=O)c(OCc2ccccc2)c1.O=C(O)/C=C/C(=O)O [Control drug, 2-benzyloxy-4-isopropyl-7-[4-phenylpiperazinomethyl]-2,4,6-cycloheptatrien-1-one 1 fumarate, reference compound] | 4.81 +/− 4.09 (n = 6) % | – | – | Bioavailability (%) [1]: 6%; Inhibitory activity on the frequency of the rhythmic bladder contraction (in words) ([2]; intra-duodenal, dose of 12.5 mg/kg): did not show significant activity |
| 57% | – | – | – | – | – | – | – | – | COc1cc(C(C)C)ccc(CN2CCN(c3ncccn3)CC2)c1=O.Cl [Test drug 1, 4-isopropyl-2-methoxy-7-[4-(2-pyrimidyl)piperazinomethyl]-2,4,6-cycloheptatrien-1-one 1 hydrochloride] | – | 48.89 +/− 5.43* % | marked inhibitory activity | Plasma concentration in rats administered orally ([1]; oral 6.25 mg/kg): ~10^−6 M; Inhibition of the binding of 8-OH-DPAT to the human serotonin 1A receptor [3]: 77%; Symptoms after oral administration ([4]; oral capsule, 3 mg/kg): no abnormal symptom was recognized; Drowsiness [4, 6]: drowsiness was observed; Time to drowsiness after administration [4, 6]: 20 to 30 min; Duration of drowsiness ([4]; oral, 30 mg/kg): 142 min; Duration of drowsiness ([4]; oral, 100 mg/kg): 318 min; Abnormal behavior other than drowsiness ([4]; oral, 3-100 mg/kg): No abnormal behavior other than drowsiness was observed; Drug concentration in the plasma ([4]; oral, 3-100 mg/kg): increased dose-dependently; Inhibition rate of the rhythmic contraction frequency of the bladder (%) ([2]; 3.13 mg/kg intra-duodenal): 43.48% |
| 31% | – | – | – | – | – | – | – | – | CC(C)c1ccc(CN2CCN(c3ncccn3)CC2)c(=O)c(O)c1.Cl [Test drug 2, 2-hydroxy-4-isopropyl-7-[4-(2-pyrimidyl)piperazinomethyl]-2,4,6-cycloheptatrien-1-one 1 hydrochloride] | 59.08 +/− 3.18* (n = 3) % | 26.84 +/− 5.33 (n = 4) % | marked inhibitory activity | – |
| – | 0.0 mg | 0.2 mg | 0.2 mg | 0.1 mg | 0.1 mg | 0.1 mg | 0.1 mg | No substantial increase | COc1cc(C(C)C)ccc(CN2CCN(c3ncccn3)CC2)c1=O.O=C(O)C(O)C(O)C(=O)O.O=C(O)C(O)C(O)C(=O)O [Test sample 1, 4-isopropyl-2-methoxy-7-[4-(2-pyrimidyl)piperazinomethyl]-2,4,6-cycloheptatrien-1-one 2 DL-tartrate] | – | – | – | – |
| – | 0.0 mg | 0.3 mg | 0.4 mg | 0.1 mg | 0.1 mg | 0.2 mg | 0.2 mg | No substantial increase | COc1cc(C(C)C)ccc(CN2CCN(c3ncccn3)CC2)c1=O.O=C(O)/C=C/C(=O)O [Test sample 2, 4-isopropyl-2-methoxy-7-[4-(2-pyrimidyl)piperazinomethyl]-2,4,6-cycloheptatrien-1-one 1 fumarate] | – | – | – | – |
